{"source": "patent US20030027722A1", "about": "“Influencing the activity of plant growth regulators” (priority 1998, published 2003)", "key": {"tobacco": {"system": "tobacco", "test": "cell division in tobacco", "assay_type": "cell-based", "settings": "elicitor 10^−10 M", "experimental": "(§1) The elicitor uridine was tested on shoot regeneration in saintpaulia, lateral root formation in pea, cell division in tobacco and root induction in larkspur and apple."}, "apple stalk slices": {"system": "apple stalk slices", "test": "rooting regeneration on apple stalk slices with elicitors", "assay_type": "cell-based", "settings": "elicitor 10^−10 M; apple stalk slices", "experimental": "The effect of the elicitors on rooting regeneration on apple stalk slices was studied. The stalk slices were incubated on medium with elicitors in combination with a sub-optimal auxin concentration (1 μM indolebutyric acid or 1 μM indoleacetic acid) which were added for 1 or 3 days to the plant tissue for testing. The increase was measured in the number of regenerated roots compared to the auxin control."}, "pea": {"system": "pea", "test": "lateral root formation in pea", "assay_type": "in vivo", "settings": "elicitor 10^−8 to 10^−16 M", "experimental": "as §1"}, "saintpaulia": {"system": "saintpaulia", "test": "shoot regeneration in saintpaulia", "assay_type": "cell-based", "settings": "elicitor 10^−10 M", "experimental": "as §1"}, "larkspur": {"system": "larkspur", "test": "root induction in larkspur", "assay_type": "in vivo", "settings": "root formation larkspur, elicitor 10^−10 M", "experimental": "as §1"}}, "data": [{"smiles": "O=c1ccn([C@@H]2O[C@H](CO)[C@@H](O)[C@H]2O)c(=O)[nH]1", "note": "[uridine]", "values": [{"measurement": "increased regeneration in relation to control (auxin alone)", "setting": "tobacco", "result": 75, "unit": "%"}, {"measurement": "increased regeneration in relation to control (auxin alone)", "setting": "apple stalk slices", "result": 75, "unit": "%"}, {"measurement": "increased regeneration in relation to control (auxin alone)", "setting": "pea", "result": 100, "unit": "%"}, {"measurement": "increased regeneration in relation to control (auxin alone)", "setting": "saintpaulia", "result": 100, "unit": "%"}, {"measurement": "increased regeneration in relation to control (auxin alone)", "setting": "larkspur", "result": 50, "unit": "%"}]}]}
